Reference: US11103493B2, “Substituted pyridinyl compounds as indoleamine 2,3-dioxygenase (IDO) inhibitors” (Merck Sharp & Dohme Corp., priority 2017, dated 2021)
pIC50: −log10 of the molar value.

Target: IDO1 (Homo sapiens, UniProt P14902)
Test: IDO1 Cellular Assay in HeLa Cells Stimulated with IFNγ
Assay type: cell-based
Conditions: IFNγ 100 ng/mL, 300 uM L-tryptophan, about 48 hours incubation, fluorescence readout, read-out: IDO1 HeLa Cell Assay, IC50
Procedure: IDO1 Cellular Assay in HeLa Cells Stimulated with IFNγ
HeLa cells were cultured in complete HeLa culture medium (90% EMEM, 10% heat-inactivated fetal bovine serum) and expanded to about 1×10^9 cells. The cells were then collected and frozen down at 1×10^7 cells/vial in 1 mL frozen medium (90% complete HeLa culture medium, 10% DMSO).
Compounds to be tested were serially diluted in ten 3-fold steps in DMSO starting from 10 mM DMSO stocks in Echo low volume plate(s).
Frozen HeLa cells were thawed and transferred into HeLa assay medium (99% complete HeLa culture medium, 1% Pen/Strep) with 20 mL medium/vial of cells. The cells were spun down at 250 g in a table top centrifuge for 5 min and suspended in same volume of HeLa assay medium. The cells were then counted and adjusted to a density of 2×10^5 cells/mL in HeLa assay medium. Sterile L-tryptophan were added to the cells with final concentration of 300 uM L-tryptophan. A small aliquot (2 mL/plate) of HeLa cells were set aside and were not treated with IFNγ, to serve as the Max-E control.
HeLa cells with and without IFNγ were dispensed to the respective wells of 384-well assay plates containing the compounds. The plates were incubated for about 48 hours at a 37° C., 5% CO2 incubator. Afterwards, 12 μL of 0.5 M methyl isonipecotate in dimethyl sulfoxide were added into each well and the plates were sealed and incubated at 37° C. without CO2 overnight. The plates were centrifuged for 1 min at 200×g. The resulting fluorescence was measured in a Spectramax plate reader (Molecular Devices) with a 400 nm excitation filter and a 510 nm emission filter.
Potencies were calculated by […] least squares fit to the four parameter logistic IC50 equation.

Sequence of IDO1 (P14902 whole entry): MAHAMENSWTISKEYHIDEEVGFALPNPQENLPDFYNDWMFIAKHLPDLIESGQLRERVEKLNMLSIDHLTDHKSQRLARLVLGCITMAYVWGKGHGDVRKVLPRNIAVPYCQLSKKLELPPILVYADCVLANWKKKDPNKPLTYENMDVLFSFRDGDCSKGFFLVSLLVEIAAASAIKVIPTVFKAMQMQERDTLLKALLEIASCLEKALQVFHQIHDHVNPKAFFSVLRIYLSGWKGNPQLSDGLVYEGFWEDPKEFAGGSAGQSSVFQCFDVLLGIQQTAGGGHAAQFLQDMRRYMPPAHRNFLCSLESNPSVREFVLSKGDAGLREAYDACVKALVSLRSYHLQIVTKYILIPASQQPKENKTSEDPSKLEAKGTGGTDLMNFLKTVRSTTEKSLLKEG

| SMILES | pIC50 |
| --- | --- |
| CC(C)(C)c1ccc2nc(C3(c4ccc(NC(=O)c5cccc(Cl)c5)nc4)CCC3)[nH]c2c1 [Ex. 12, N-{5-[1-(6-tert-butyl-1H-benzimidazol-2-yl)cyclobutyl]pyridin-2-yl}-3-chlorobenzamide] | 6.36 |
| COC(=O)c1cccc2nc(C3(c4ccc(NC(=O)c5cccc(C#N)c5)nc4)CCC3)[nH]c12 [Ex. 35, Methyl 2-(1-(6-(3-cyanobenzamido)pyridin-3-yl)cyclobutyl)-1H-benzo[d]imidazole-7-carboxylate] | 6.42 |
| O=C1COc2cc3[nH]c(C4(c5ccc(NC(=O)c6cccc(Cl)c6)nc5)CCC4)nc3cc2N1 [Ex. 18, 3-chloro-N-{5-[1-(7-oxo-3,6,7,8-tetrahydroimidazo[4,5-g][1,4]benzoxazin-2-yl)cyclobutyl]pyridin-2-yl}benzamide] | 6.88 |
| N#Cc1cnc2[nH]c(C3(c4ccc(NC(=O)c5cccc(Cl)c5)nc4)CCC3)cc2c1 [Ex. 6, 3-Chloro-N-(5-(1-(5-cyano-1H-pyrrolo[2,3-b]pyridin-2-yl)cyclobutyl)pyridin-2-yl)benzamide] | 6.20 |
| N#Cc1cccc(C(=O)Nc2ccc(C3(c4nc5cc(C#N)cnc5[nH]4)CCC3)cn2)c1 [Ex. 29, 3-cyano-N-{5-[1-(6-cyano-3H-imidazo[4,5-b]pyridin-2-yl)cyclobutyl]pyridin-2-yl}benzamide] | 7.34 |
| CO[C@H](c1ccc(NC(=O)c2cccc(C#N)c2)nc1)c1nc2cc(C(F)(F)F)cnc2[nH]1 [Ex. 41, (R)-3-cyano-N-(5-(methoxy(6-(trifluoromethyl)-3H-imidazo[4,5-b]pyridin-2-yl)methyl)pyridin-2-yl)benzamide] | 6.58 |
| N#Cc1cccc(C(=O)Nc2ccc([C@H](O)c3nc4cc(C(F)(F)F)cnc4[nH]3)cn2)c1 [Ex. 43, (S)-3-cyano-N-(5-(hydroxy(6-(trifluoromethyl)-3H-imidazo[4,5-b]pyridin-2-yl)methyl)pyridin-2-yl)benzamide] | 5.41 |
| N#Cc1cccc(C(=O)Nc2ccc([C@@H](O)c3nc4cc(C(F)(F)F)cnc4[nH]3)cn2)c1 [Ex. 44, (R)-3-cyano-N-(5-(hydroxy(6-(trifluoromethyl)-3H-imidazo[4,5-b]pyridin-2-yl)methyl)pyridin-2-yl)benzamide] | 5.21 |
| Cc1cc2nc(C3(c4ccc(NC(=O)c5cccc(Cl)c5)nc4)CCC3)[nH]c2cc1C [Ex. 26, 3-chloro-N-{5-[1-(5,6-dimethyl-1H-benzimidazol-2-yl)cyclobutyl]pyridin-2-yl}benzamide] | 8.02 |
| N#Cc1cccc(C(=O)Nc2ccc(C(O)c3nc4cc(C(F)(F)F)cnc4[nH]3)cn2)c1 (stereo not drawn) [Ex. 42, 3-Cyano-N-(5-(hydroxy(6-(trifluoromethyl)-3H-imidazo[4,5-b]pyridin-2-yl)methyl)pyridin-2-yl)benzamide] | 5.23 |
| O=C(Nc1ccc(C2(c3nc4ccccc4n3CCO)CCC2)cn1)c1cccc(Cl)c1 [Ex. 31, 3-Chloro-N-(5-(1-(1-(2-hydroxyethyl)-1H-benzo[d]imidazol-2-yl)cyclobutyl)pyridin-2-yl)benzamide] | 6.70 |
| COC(c1ccc(NC(=O)c2cccc(C#N)c2)nc1)c1nc2cc(C(F)(F)F)cnc2[nH]1 (stereo not drawn) [Ex. 39, 3-Cyano-N-(5-(methoxy(6-(trifluoromethyl)-3H-imidazo[4,5-b]pyridin-2-yl)methyl)pyridin-2-yl)benzamide] | 6.92 |
| CO[C@@H](c1ccc(NC(=O)c2cccc(C#N)c2)nc1)c1nc2cc(C(F)(F)F)cnc2[nH]1 [Ex. 40, (S)-3-cyano-N-(5-(methoxy(6-(trifluoromethyl)-3H-imidazo[4,5-b]pyridin-2-yl)methyl)pyridin-2-yl)benzamide] | 7.02 |
| N#Cc1cnc2nc(C3(c4ccc(NC(=O)c5cncc(F)c5)nc4)CCC3)[nH]c2c1 [Ex. 4, N-(5-(1-(6-cyano-1H-imidazo[4,5-b]pyridin-2-yl)cyclobutyl)pyridin-2-yl)-5-fluoronicotinamide] | 6.84 |
| N#Cc1cccc(C(=O)Nc2ccc(C3(c4nc5cccc(C(=O)O)c5[nH]4)CCC3)cn2)c1 [Ex. 36, 2-(1-(6-(3-Cyanobenzamido)pyridin-3-yl)cyclobutyl)-1H-benzo[d]imidazole-7-carboxylic acid] | 5.00 |
| COc1ccc2nc(C3(c4ccc(NC(=O)c5cccc(Cl)c5)nc4)CCC3)[nH]c2c1 [Ex. 14, 3-chloro-N-{5-[1-(6-methoxy-1H-benzimidazol-2-yl)cyclobutyl]pyridin-2-yl}benzamide] | 8.25 |
| O=C(Nc1ccc(C2(c3nc4c([nH]3)CCCC4)CCC2)cn1)c1cccc(Cl)c1 [Ex. 48, 3-Chloro-N-(5-(1-(4,5,6,7-tetrahydro-1H-benzo[d]imidazol-2-yl)cyclobutyl)pyridin-2-yl)benzamide] | 7.00 |
| O=C(Nc1ccc(C2(c3nc4cc(-n5cnnn5)ccc4[nH]3)CCC2)cn1)c1cccc(Cl)c1 [Ex. 20, 3-chloro-N-(5-{1-[5-(1H-tetrazol-1-yl)-1H-benzimidazol-2-yl]cyclobutyl}pyridin-2-yl)benzamide] | 6.58 |
| COc1cccc2[nH]c(C3(c4ccc(NC(=O)c5cccc(Cl)c5)nc4)CCC3)nc12 [Ex. 15, 3-chloro-N-{5-[1-(4-methoxy-1H-benzimidazol-2-yl)cyclobutyl]pyridin-2-yl}benzamide] | 8.00 |
| Cc1cccc2nc(C3(c4ccc(NC(=O)c5cccc(Cl)c5)nc4)CCC3)[nH]c12 [Ex. 11, 3-chloro-N-{5-[1-(7-methyl-1H-benzimidazol-2-yl)cyclobutyl]pyridin-2-yl}benzamide] | 7.99 |
| O=C(Nc1ccc(C2(c3nc4ccc(OC(F)(F)F)cc4[nH]3)CCC2)cn1)c1cccc(Cl)c1 [Ex. 22, 3-chloro-N-(5-{1-[6-(trifluoromethoxy)-1H-benzimidazol-2-yl]cyclobutyl}pyridin-2-yl)benzamide] | 7.85 |
